Several values for one entry are separate records, joined by “and”; a condition that tells them apart may be missing. Identical values can stand only once. Toxic doses and inconclusive results are not listed.
System: B6C3F1 mice, ip Sarcoma M5076, median survival T/C
Test: NCI In Vivo Anticancer Drug Screen. Data for tumor model Sarcoma M5076 (intraperitoneal) in B6C3F1 mice
Conditions: endpoint: median survival time, higher = longer survival
Method: The antitumor activity of compounds was measured in mice bearing transplantable tumors. Survival or tumor size were measured and the results are expressed as the measurement made in the treated group (T) divided by the measurement made in the vehicle treated control group (C). The tumor model used in this assay is Sarcoma M5076 (intraperitoneal) in B6C3F1 mice

[1] = dose: 400.0 mg/kg/injection, schedule: Q04DX004 (ip), vehicle: Klucel (hydroxypropylcellulose) (HPC)
[2] = dose: 50.0 mg/kg/injection, schedule: Q04DX004 (ip), vehicle: Klucel (hydroxypropylcellulose) (HPC)
[3] = dose: 100.0 mg/kg/injection, schedule: Q04DX004 (ip), vehicle: Klucel (hydroxypropylcellulose) (HPC)
[4] = dose: 200.0 mg/kg/injection, schedule: Q04DX004 (ip), vehicle: Klucel (hydroxypropylcellulose) (HPC)
[5] = dose: 37.5 mg/kg/injection, schedule: Q04DX004 (ip), vehicle: saline with Tween-80
[6] = dose: 75.0 mg/kg/injection, schedule: Q04DX004 (ip), vehicle: saline with Tween-80
[7] = dose: 150.0 mg/kg/injection, schedule: Q04DX004 (ip), vehicle: saline with Tween-80
[8] = dose: 300.0 mg/kg/injection, schedule: Q04DX004 (ip), vehicle: saline with Tween-80
[9] = dose: 600.0 mg/kg/injection, schedule: Q04DX004 (ip), vehicle: saline with Tween-80
[10] = dose: 50.0 mg/kg/injection, schedule: Q04DX004 (ip), vehicle: saline
[11] = dose: 100.0 mg/kg/injection, schedule: Q04DX004 (ip), vehicle: saline
[12] = dose: 25.0 mg/kg/injection, schedule: Q04DX004 (ip), vehicle: Klucel (hydroxypropylcellulose) (HPC)
[13] = dose: 50.0 mg/kg/injection, schedule: Q04DX004 (ip), vehicle: saline with Tween-80
[14] = dose: 100.0 mg/kg/injection, schedule: Q04DX004 (ip), vehicle: saline with Tween-80
[15] = dose: 200.0 mg/kg/injection, schedule: Q04DX004 (ip), vehicle: saline with Tween-80
[16] = dose: 2.0 mg/kg/injection, schedule: Q04DX004 (ip), vehicle: saline with Tween-80
[17] = dose: 4.0 mg/kg/injection, schedule: Q04DX004 (ip), vehicle: saline with Tween-80
[18] = dose: 8.0 mg/kg/injection, schedule: Q04DX004 (ip), vehicle: saline with Tween-80
[19] = dose: 800.0 mg/kg/injection, schedule: Q04DX004 (ip), vehicle: saline with Tween-80

CC1(CO)C(O)CCC2(C)C1CCC1CC3CC12CCC3(O)CO (stereo not given)
T/C (dose: 51.8 mg/kg/injection, schedule: Q04DX005 (ip), vehicle: Klucel (hydroxypropylcellulose) (HPC)): 120 % of control | T/C (dose: 86.4 mg/kg/injection, schedule: Q04DX004 (ip), vehicle: Klucel (hydroxypropylcellulose) (HPC)): 120 % of control | T/C (dose: 86.4 mg/kg/injection, schedule: Q04DX005 (ip), vehicle: Klucel (hydroxypropylcellulose) (HPC)): 124 % of control | T/C (dose: 144.0 mg/kg/injection, schedule: Q04DX004 (ip), vehicle: Klucel (hydroxypropylcellulose) (HPC)): 116 % of control | T/C (dose: 144.0 mg/kg/injection, schedule: Q04DX005 (ip), vehicle: Klucel (hydroxypropylcellulose) (HPC)): 123 % of control | T/C (dose: 240.0 mg/kg/injection, schedule: Q04DX005 (ip), vehicle: Klucel (hydroxypropylcellulose) (HPC)): 122 % of control | T/C [1]: 151 % of control and 164 % of control

COc1cc2cc3c(c(O)c2c(O)c1/C=C/C(C)C)C(=O)CC(C)(OC(C)=O)C3 (stereo not given)
T/C (dose: 0.62 mg/kg/injection, schedule: Q01DX009 (ip), vehicle: Klucel (hydroxypropylcellulose) (HPC)): 117 % of control | T/C (dose: 0.63 mg/kg/injection, schedule: Q01DX009 (ip), vehicle: Klucel (hydroxypropylcellulose) (HPC)): 98 % of control and 104 % of control and 106 % of control | T/C (dose: 0.63 mg/kg/injection, schedule: Q04DX004 (ip), vehicle: Klucel (hydroxypropylcellulose) (HPC)): 113 % of control | T/C (dose: 1.25 mg/kg/injection, schedule: Q04DX004 (ip), vehicle: Klucel (hydroxypropylcellulose) (HPC)): 121 % of control | T/C (dose: 2.5 mg/kg/injection, schedule: Q04DX004 (ip), vehicle: Klucel (hydroxypropylcellulose) (HPC)): 123 % of control | T/C (dose: 3.6 mg/kg/injection, schedule: Q04DX004 (ip), vehicle: Klucel (hydroxypropylcellulose) (HPC)): 106 % of control | T/C (dose: 6.0 mg/kg/injection, schedule: Q04DX004 (ip), vehicle: Klucel (hydroxypropylcellulose) (HPC)): 110 % of control | T/C (dose: 10.0 mg/kg/injection, schedule: Q04DX004 (ip), vehicle: Klucel (hydroxypropylcellulose) (HPC)): 118 % of control | T/C (dose: 16.67 mg/kg/injection, schedule: Q04DX004 (ip), vehicle: Klucel (hydroxypropylcellulose) (HPC)): 117 % of control

COc1ccc(C2NC(=S)NC(=O)C2C#N)cc1OC (stereo not given)
T/C [2]: 95 % of control | T/C [3]: 100 % of control | T/C [4]: 106 % of control | T/C [1]: 105 % of control

Nc1nc(=O)nc2[nH]c3c4cccc5cccc(c3nc12)c54
T/C [5]: 101 % of control | T/C [6]: 95 % of control | T/C [7]: 98 % of control | T/C [8]: 90 % of control | T/C [9]: 94 % of control

O=S(O)Cc1ccccc1CSSSCc1ccccc1CS(=O)O
T/C [10]: 105 % of control | T/C (dose: 50.0 mg/kg/injection, schedule: Q04DX004 (ip), vehicle: suspension in saline): 111 % of control | T/C [11]: 103 % of control | T/C (dose: 100.0 mg/kg/injection, schedule: Q04DX004 (ip), vehicle: suspension in saline): 95 % of control | T/C (dose: 200.0 mg/kg/injection, schedule: Q04DX004 (ip), vehicle: saline): 94 % of control | T/C (dose: 400.0 mg/kg/injection, schedule: Q04DX004 (ip), vehicle: saline): 99 % of control | T/C (dose: 400.0 mg/kg/injection, schedule: Q04DX004 (ip), vehicle: suspension in saline): 91 % of control | T/C (dose: 800.0 mg/kg/injection, schedule: Q04DX004 (ip), vehicle: saline): 95 % of control | T/C (dose: 800.0 mg/kg/injection, schedule: Q04DX004 (ip), vehicle: suspension in saline): 91 % of control

CCOP1(OCC)(SSC)OC(=O)C(C)S1 (stereo not given)
T/C (dose: 18.75 mg/kg/injection, schedule: Q04DX004 (ip), vehicle: saline with Tween-80): 92 % of control | T/C [5]: 88 % of control | T/C [6]: 98 % of control

O=C(N/N=C/c1ccc(O)cc1)c1ccc(OCc2nc3ccccc3[nH]2)cc1
T/C [12]: 96 % of control | T/C [3]: 93 % of control | T/C [1]: 92 % of control

OCCC(N1CCOCC1)C(O)(c1ccccc1)c1ccccc1 (stereo not given)
T/C [5]: 103 % of control | T/C [6]: 106 % of control | T/C [7]: 107 % of control | T/C [8]: 100 % of control | T/C [9]: 93 % of control

Clc1ccc(-c2noc(CN3CCCCC3)n2)cc1
T/C [13]: 92 % of control | T/C [14]: 96 % of control | T/C [15]: 97 % of control

Cn1c(=O)c2nncnc2n(C)c1=O
T/C [13]: 94 % of control | T/C [14]: 96 % of control | T/C [15]: 94 % of control

N=C(N)c1ccc(N=Nc2c(O)ccc3cc(O)ccc23)cc1
T/C (dose: 12.5 mg/kg/injection, schedule: Q04DX004 (ip), vehicle: Klucel (hydroxypropylcellulose) (HPC)): 98 % of control and 103 % of control | T/C [12]: 95 % of control and 99 % of control | T/C [2]: 96 % of control and 103 % of control | T/C [3]: 100 % of control and 103 % of control | T/C [4]: 97 % of control and 98 % of control

O=C(O)CCCc1ccc(N(CCCl)CCCl)cc1
T/C [16]: 108 % of control | T/C [17]: 114 % of control and 123 % of control | T/C [18]: 118 % of control

N[C@@H](Cc1ccc(N(CCCl)CCCl)cc1)C(=O)O
T/C (dose: 0.5 mg/kg/injection, schedule: Q04DX004 (ip), vehicle: saline with Tween-80): 124 % of control | T/C [16]: 188 % of control | T/C (dose: 2.0 mg/kg/injection, schedule: Q04DX004 (ip), vehicle: saline): 151 % of control | T/C [17]: 213 % of control and 221 % of control | T/C (dose: 4.0 mg/kg/injection, schedule: Q04DX004 (ip), vehicle: saline): 172 % of control | T/C [18]: 251 % of control | T/C (dose: 8.0 mg/kg/injection, schedule: Q04DX004 (ip), vehicle: saline): 251 % of control

COc1cc([C@@H]2c3cc4c(cc3[C@H](O)[C@H]3COC(=O)[C@H]23)OCO4)cc(OC)c1OC
T/C [16]: 117 % of control | T/C (dose: 5.8 mg/kg/injection, schedule: Q04DX004 (ip), vehicle: saline with Tween-80): 117 % of control | T/C (dose: 15.98 mg/kg/injection, schedule: Q04DX004 (ip), vehicle: saline with Tween-80): 154 % of control | T/C (dose: 44.4 mg/kg/injection, schedule: Q04DX004 (ip), vehicle: saline with Tween-80): 151 % of control

NCCCNCCCCNC(=O)C(O)NC(=O)CC(O)CCCCN=C(N)N (stereo not given)
T/C [10]: 117 % of control | T/C [11]: 115 % of control

Oc1c(Cl)cc(Cl)cc1C1Nc2ccccc2-n2cccc21 (stereo not given)
T/C (dose: 12.5 mg/kg/injection, schedule: Q04DX004 (ip), vehicle: saline with Tween-80): 90 % of control | T/C (dose: 25.0 mg/kg/injection, schedule: Q04DX004 (ip), vehicle: saline with Tween-80): 88 % of control | T/C [13]: 86 % of control and 92 % of control | T/C (dose: 400.0 mg/kg/injection, schedule: Q04DX004 (ip), vehicle: saline with Tween-80): 87 % of control | T/C [19]: 91 % of control

O=C(Nc1ccccc1CCl)Nc1ccccc1CCl
T/C [13]: 107 % of control | T/C [14]: 102 % of control and 110 % of control | T/C [15]: 109 % of control and 114 % of control | T/C [19]: 123 % of control

CC(C)(C)NC(C1=CC(C)(C)c2ccccc2C1=O)c1ccccc1 (stereo not given)
T/C [2]: 103 % of control | T/C [3]: 101 % of control | T/C [4]: 110 % of control | T/C [1]: 104 % of control

Source: PubChem BioAssay AID292 (DTP/NCI, 2004)
